Measured values taken from patent publication US9862730B2, “Imidazothiadiazole derivatives as protease activated receptor 4 (PAR4) inhibitors for treating platelet aggregation” (BRISTOL-MYERS SQUIBB COMPANY, priority 2012, dated 2018).

Target: PAR4 (Homo sapiens (Human), UniProt Q96RI0)
Assay: FLIPR assay in PAR4-expressing HEK293 cells (PAR4 antagonist activity, calcium mobilization)
Format: cell-based
Conditions: FLIPR assay as described in Example A
Outline: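 HEK293 cells stably expressing human PAR4 (also endogenous PAR1) in HBSS/10 mM HEPES, 0.67% DMSO final. Compound added and read for agonist activity, then 30 min room temperature before PAR4 agonist peptide; intracellular calcium mobilization monitored by FDSS/FLIPR.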

Chain of PAR4 (Q96RI0 18-385): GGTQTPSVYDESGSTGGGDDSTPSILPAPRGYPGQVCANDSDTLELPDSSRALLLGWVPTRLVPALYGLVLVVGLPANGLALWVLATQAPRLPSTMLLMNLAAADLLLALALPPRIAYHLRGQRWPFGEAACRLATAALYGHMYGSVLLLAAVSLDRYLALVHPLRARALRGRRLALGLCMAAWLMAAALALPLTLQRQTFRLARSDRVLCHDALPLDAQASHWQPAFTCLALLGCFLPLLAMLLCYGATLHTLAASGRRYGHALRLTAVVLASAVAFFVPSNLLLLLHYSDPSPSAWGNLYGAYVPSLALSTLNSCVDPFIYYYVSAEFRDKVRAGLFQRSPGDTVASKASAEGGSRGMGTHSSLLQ

IC50 [nM]	Compound
601	CCCOc1cccc2cc(-c3cn4nc(CC)sc4n3)oc12 [Example 56]
3.13	COc1cc(OCc2cccc(OCc3ccc(F)cc3C(F)(F)F)c2)c2cc(-c3cn4nc(OC)sc4n3)oc2c1 [Example 385]
147	CCOc1cccc2cc(-c3cn4nc(CC)sc4n3)oc12 [Example 13, 6-(7-Ethoxybenzofuran-2-yl)-2-ethylimidazo[2,1-b][1,3,4]thiadiazole]
2.98	COc1cc(OCc2cccc(OCc3ccc(F)cc3Cl)c2)c2cc(-c3cn4nc(OC)sc4n3)oc2c1 [Example 369]
8.88	COc1cc(OCc2cccc(OCc3ccc(F)c(C(F)(F)F)c3)c2)c2cc(-c3cn4nc(OC)sc4n3)oc2c1 [Example 315]
482	CSc1nn2cc(-c3cc4c(OCc5cccnc5)cccc4o3)nc2s1 [Example 216, 2-(Methylthio)-6-(4-(pyridin-3-ylmethoxy)benzofuran-2-yl) imidazo[2,1-b][1,3,4]thiadiazole]
5.88	COc1nn2cc(-c3cc4c(C)cc(C)cc4o3)nc2s1 [Example 297]
4720	CC(F)(F)c1nn2cc(-c3nc4c(Cl)cccc4s3)nc2s1 [Example 198]
565	CCc1nn2cc(-c3nc4cc(C)c(C)cc4o3)nc2s1 [Example 46]
80.4	CSc1nn2cc(-c3nc4cc(OC(F)(F)F)ccc4o3)nc2s1 [Example 139]
43.1	COc1nn2cc(-c3cc4c(OCc5ccc(F)cc5)cccc4o3)nc2s1 [Example 266]
145	CSc1nn2cc(-c3cc4c(OCC#N)cccc4o3)nc2s1 [Example 248]
8.19	CSc1nn2cc(-c3cc4c(Cl)cc(Cl)cc4o3)nc2s1 [Example 287]
897	CSc1nn2cc(-c3nc4c(OC[C@H]5CCCN5C(=O)[C@H](NC(=O)c5cccs5)c5ccccc5)cccc4o3)nc2s1 [Example 336, N—((R)-2-((R)-2-(((2-(2-(Methylthio)imidazo[2,1-b][1,3,4]thiadiazol-6-yl)benzo[d]oxazol-4-yl)oxy)methyl)pyrrolidin-1-yl)-2-oxo-1-phenylethyl)thiophene-2-carboxamide]
84.3	CSc1nn2cc(-c3nc4c(OC[C@H]5CCCN5C(=O)OC(C)(C)C)cccc4o3)nc2s1 [Example 331, (R)-tert-Butyl 2-(((2-(2-(methylthio)imidazo[2,1-b][1,3,4]thiadiazol-6-yl)benzo[d]oxazol-4-yl)oxy)methyl)pyrrolidine-1-carboxylate]
1.82	COc1nn2cc(-c3cc4c(OCc5cccc(OCc6ccccc6)c5)cccc4o3)nc2s1 [Example 413, 6-(4-((3-(Benzyloxy)benzyl)oxy)benzofuran-2-yl)-2-methoxyimidazo[2,1-b][1,3,4]thiadiazole]
681	CCc1nn2cc(-c3nc4ccc(OCC5CC5)cc4o3)nc2s1 [Example 74]
2.11	COc1cc(OCc2cccc(OCc3ccc(C(C)C)cc3)c2)c2cc(-c3cn4nc(OC)sc4n3)oc2c1 [Example 313]
276	COc1cc(Br)cc2cc(-c3cn4nc(Br)sc4n3)oc12 [Example 286]
318	CC(F)c1nn2cc(-c3cc4ccc(OCc5ccccc5)cc4o3)nc2s1 (stereo not drawn) [Example 246]
1970	Cc1cc2oc(-c3cn4nc(C(C)(F)F)sc4n3)cc2cc1Cl [Example 274]
6.73	COc1cc(OCc2cccc(OCc3cc(C(F)(F)F)ccc3F)c2)c2cc(-c3cn4nc(OC)sc4n3)oc2c1 [Example 321]
19.1	COc1nn2cc(-c3cc4cc(Cl)ccc4o3)nc2s1 [Example 91]
2.23	COc1cc(OCc2ccc(OC)c(OCc3ccccc3)c2)c2cc(-c3cn4nc(OC)sc4n3)oc2c1 [Example 351]
626	CC(F)(F)c1nn2cc(-c3nc4ccccc4s3)nc2s1 [Example 185, 2-(2-(1,1-Difluoroethyl)imidazo[2,1-b][1,3,4]thiadiazol-6-yl)benzo[d]thiazole]
345	CSc1nn2cc(-c3nc4ccc(OCc5ccc(C(F)(F)F)cc5)cc4o3)nc2s1 [Example 153]

IC50 [nM]	Compound
29.6	COc1nn2cc(-c3cc4c(Br)ccc(OC)c4o3)nc2s1 [Example 289]
814	COc1ccc(COc2cccc3oc(-c4cn5nc(SC)sc5n4)nc23)cc1 [Example 172]
7.38	COc1cc(OCc2cccc(OCc3ccc(Cl)cc3Cl)c2)c2cc(-c3cn4nc(OC)sc4n3)oc2c1 [Example 378]
135	CCc1nn2cc(-c3nc4cc(Cl)ccc4o3)nc2s1 [Example 45]
48.9	CSc1nn2cc(-c3nc4c(N)cccc4o3)nc2s1 [Example 120, 2-(2-(Methylthio)imidazo[2,1-b][1,3,4]thiadiazol-6-yl)benzo[d]oxazol-4-amine]
38.9	COc1nn2cc(-c3nc4cc(C)c(C)cc4o3)nc2s1 [Example 136]
5.5	COc1nn2cc(-c3nc4ccc(F)cc4s3)nc2s1 [Example 184, 6-Fluoro-2-(2-methoxyimidazo[2,1-b][1,3,4]thiadiazol-6-yl)benzo[d]thiazole]
42.5	CC(F)(F)c1nn2cc(-c3cc4c(Cl)cc(Cl)cc4o3)nc2s1 [Example 238]
604	Brc1nn2cc(-c3cc4c(OCc5ccccc5)cc(OCc5ccccc5)cc4o3)nc2s1 [Example 254]
28.2	COc1nn2cc(-c3cc4cccc(C)c4o3)nc2s1 [Example 89]
323	Fc1cccc2cc(-c3cn4nc(Br)sc4n3)oc12 [Example 259]
22.3	CC(F)(F)c1nn2cc(-c3cc4ccc(F)cc4o3)nc2s1 [Example 231]
442	FC(F)(Cl)c1nn2cc(-c3cc4ccccc4o3)nc2s1 [Example 209, 6-(Benzofuran-2-yl)-2-(chlorodifluoromethyl)imidazo[2,1-b][1,3,4]thiadiazole]
180	CC(F)(F)c1nn2cc(-c3cc4c(F)cccc4o3)nc2s1 [Example 273]
23.9	CSc1nn2cc(-c3nc4cc(F)c(F)cc4o3)nc2s1 [Example 137]
253	COc1cc(OC[C@@H]2CCCN2C(=O)OC(C)(C)C)c2cc(-c3cn4nc(OC)sc4n3)oc2c1 [Example 342-343]
66	CCc1nn2cc(-c3nc4ccc(OCc5cccc(Cl)c5)cc4o3)nc2s1 [Example 82]
27.8	COc1ccc2oc(-c3cn4nc(OC)sc4n3)nc2c1 [Example 142]
260	COc1cc(OCc2cccc(OCc3cccc(OCc4cccc(Cl)c4)c3)c2)c2cc(-c3cn4nc(OC)sc4n3)oc2c1 [Example 375]
1.22	COc1ccc2cc(-c3cn4nc(OC)sc4n3)oc2c1 [Example 71]
1.22	COc1cc(OCc2cccc(OCc3ccccc3OC)c2)c2cc(-c3cn4nc(OC)sc4n3)oc2c1 [Example 309]
623	CCOC(=O)CCCOc1cccc2cc(-c3cn4nc(CC)sc4n3)oc12 [Example 60]
253	CSc1nn2cc(-c3nc4c(OC[C@@H]5CCCN5C(=O)OC(C)(C)C)cccc4o3)nc2s1 [Example 332, (S)-tert-Butyl 2-(((2-(2-(methylthio)imidazo[2,1-b][1,3,4]thiadiazol-6-yl)benzo[d]oxazol-4-yl)oxy)methyl)pyrrolidine-1-carboxylate]
361	CCc1nn2cc(-c3nc4cc(F)ccc4o3)nc2s1 [Example 49]
673	CSc1nn2cc(-c3nc4ccc(OCc5ccccc5Cl)cc4o3)nc2s1 [Example 151]
